Experimental data taken from ChEMBL document CHEMBL3044665, “Adzuki bean (Vigna angularis) responses to post-emergence herbicides” (Crop Prot, 2006).

How the values were obtained:
Assay type in all cases: organism-based
Vigna angularis [1] = assay: Phytotoxicity in Vigna angularis (adzuki bean) assessed as visual injury at 1080 g ai/ha after 28 days applied as spray relative to untreated control; conditions: in vivo, other, 672 h
Vigna angularis [2] = assay: Phytotoxicity in Vigna angularis (adzuki bean) assessed as visual injury at 2160 g ai/ha after 14 days applied as spray relative to untreated control; conditions: in vivo, other, 336 h
Phaseolus vulgaris [3] = assay: Phytotoxicity in Phaseolus vulgaris (cranberry bean) assessed as visual injury at 1080 g ai/ha applied as spray during post emergence after 7 days relative to untreated control; conditions: in vivo, other, 168 h
Vigna angularis [4] = assay: Phytotoxicity in Vigna angularis (adzuki bean) assessed as decrease in shoot dry weight at 2160 g ai/ha after 42 days applied as spray relative to untreated control; design: scale not given: the % may be the effect or the level left; conditions: in vivo, other, 1008 h
Vigna angularis [5] = assay: Phytotoxicity in Vigna angularis (adzuki bean) assessed as decrease in crop yield at 1080 g ai/ha measured during post emergence applied as spray relative to untreated control; conditions: in vivo, other
Vigna angularis [6] = assay: Phytotoxicity in Vigna angularis (adzuki bean) assessed as visual injury at 1080 g ai/ha after 14 days applied as spray relative to untreated control; conditions: in vivo, other, 336 h
Vigna angularis [7] = assay: Phytotoxicity in Vigna angularis (adzuki bean) assessed as decrease in plant height at 1080 g ai/ha after 28 days applied as spray relative to untreated control; design: scale not given: the % may be the effect or the level left; conditions: in vivo, other, 672 h
Vigna angularis [8] = assay: Phytotoxicity in Vigna angularis (adzuki bean) assessed as visual injury at 2160 g ai/ha after 28 days applied as spray relative to untreated control; conditions: in vivo, other, 672 h
Vigna angularis [9] = assay: Phytotoxicity in Vigna angularis (adzuki bean) assessed as seed moisture content at 1080 g ai/ha after 42 days applied as spray (reference value: 13.9%); conditions: in vivo, other, 1008 h, at 1080 g/ha
Phaseolus vulgaris [10] = assay: Phytotoxicity in Phaseolus vulgaris (black bean) assessed as visual injury at 1080 g ai/ha applied as spray during post emergence after 7 days relative to untreated control; conditions: in vivo, other, 168 h
Phaseolus vulgaris [11] = assay: Phytotoxicity in Phaseolus vulgaris (dry bean) assessed as visual injury at 1080 g ai/ha applied as spray during post emergence relative to untreated control; conditions: in vivo, other
Vigna angularis [12] = assay: Phytotoxicity in Vigna angularis (adzuki bean) assessed as decrease in plant height at 2160 g ai/ha after 28 days applied as spray relative to untreated control; design: scale not given: the % may be the effect or the level left; conditions: in vivo, other, 672 h
Vigna angularis [13] = assay: Phytotoxicity in Vigna angularis (adzuki bean) assessed as seed moisture content at 2160 g ai/ha after 42 days applied as spray (reference value: 13.9%); conditions: in vivo, other, 1008 h, at 2160 g/ha
Vigna angularis [14] = assay: Phytotoxicity in Vigna angularis (adzuki bean) assessed as visual injury at 2160 g ai/ha after 7 days applied as spray relative to untreated control; conditions: in vivo, other, 168 h
Vigna angularis [15] = assay: Phytotoxicity in Vigna angularis (adzuki bean) assessed as visual injury at 1080 g ai/ha after 7 days applied as spray relative to untreated control; conditions: in vivo, other, 168 h
Vigna angularis [16] = assay: Phytotoxicity in Vigna angularis (adzuki bean) assessed as decrease in crop yield at 2160 g ai/ha measured during post emergence applied as spray relative to untreated control; conditions: in vivo, other
Vigna angularis [17] = assay: Phytotoxicity in Vigna angularis (adzuki bean) assessed as decrease in shoot dry weight at 1080 g ai/ha after 42 days applied as spray relative to untreated control; design: scale not given: the % may be the effect or the level left; conditions: in vivo, other, 1008 h
Phaseolus vulgaris [18] = assay: Phytotoxicity in Phaseolus vulgaris (white navy bean) assessed as decrease in crop yield relative to untreated control; conditions: in vivo
Vigna angularis [19] = assay: Phytotoxicity in Vigna angularis (adzuki bean) assessed as visual injury at 480 g ai/ha after 28 days applied as spray relative to untreated control; conditions: in vivo, other, 672 h
Vigna angularis [20] = assay: Phytotoxicity in Vigna angularis (adzuki bean) assessed as visual injury at 240 g ai/ha after 28 days applied as spray relative to untreated control; conditions: in vivo, other, 672 h
Vigna angularis [21] = assay: Phytotoxicity in Vigna angularis (adzuki bean) assessed as visual injury at 480 g ai/ha after 14 days applied as spray relative to untreated control; conditions: in vivo, other, 336 h
Vigna angularis [22] = assay: Phytotoxicity in Vigna angularis (adzuki bean) assessed as visual injury at 240 g ai/ha after 7 days applied as spray relative to untreated control; conditions: in vivo, other, 168 h
Vigna angularis [23] = assay: Phytotoxicity in Vigna angularis (adzuki bean) assessed as shoot dry weight at 240 g ai/ha measured per 1 m row after 42 days applied as spray (reference value: 153 g); conditions: in vivo, other, 1008 h
Vigna angularis [24] = assay: Phytotoxicity in Vigna angularis (adzuki bean) assessed as seed moisture content at 480 g ai/ha after 42 days applied as spray (reference value: 13.9%); conditions: in vivo, other, 1008 h, at 480 g/ha
Vigna angularis [25] = assay: Phytotoxicity in Vigna angularis (adzuki bean) assessed as visual injury at 240 g ai/ha after 14 days applied as spray relative to untreated control; conditions: in vivo, other, 336 h
Vigna angularis [26] = assay: Phytotoxicity in Vigna angularis (adzuki bean) assessed as crop yield at 240 g ai/ha measured during post-emergence applied as spray (reference value: 2.05 t/ha); conditions: in vivo, other
Vigna angularis [27] = assay: Phytotoxicity in Vigna angularis (adzuki bean) assessed as seed moisture content at 240 g ai/ha after 42 days applied as spray (reference value: 13.9%); conditions: in vivo, other, 1008 h, at 240 g/ha
Vigna angularis [28] = assay: Phytotoxicity in Vigna angularis (adzuki bean) assessed as plant height at 480 g ai/ha after 28 days applied as spray (RVB = 34 cm); conditions: in vivo, other, 672 h
Vigna angularis [29] = assay: Phytotoxicity in Vigna angularis (adzuki bean) assessed as visual injury at 480 g ai/ha after 7 days applied as spray relative to untreated control; conditions: in vivo, other, 168 h
Vigna angularis [30] = assay: Phytotoxicity in Vigna angularis (adzuki bean) assessed as plant height at 240 g ai/ha after 28 days applied as spray (RVB = 34 cm); conditions: in vivo, other, 672 h
Vigna angularis [31] = assay: Phytotoxicity in Vigna angularis (adzuki bean) assessed as decrease in shoot dry weight at 480 g ai/ha after 42 days applied as spray relative to untreated control; design: scale not given: the % may be the effect or the level left; conditions: in vivo, other, 1008 h
Vigna angularis [32] = assay: Phytotoxicity in Vigna angularis (adzuki bean) assessed as crop yield at 480 g ai/ha measured during post emergence applied as spray (reference value: 2.05 t/ha); conditions: in vivo, other

Question: Which Activity (Vigna angularis [1]) does the source give for `CC(C)N1C(=O)c2ccccc2NS1(=O)=O` [BENTAZON] here?
Answer: 29.8%

Question: And the Activity (Vigna angularis [2])?
Answer: 43.5%

Question: What about the Activity (Phaseolus vulgaris [3]) of the same compound?
Answer: < 2%

Question: What about the Activity (Vigna angularis [4]) of the same compound?
Answer: 65%

Question: And the Crop_yield (Vigna angularis [5])?
Answer: 48%

Question: What about the Activity (Vigna angularis [6]) of the same compound?
Answer: 33.2%

Question: What about the Activity (Vigna angularis [7]) of the same compound?
Answer: 37%

Question: And the Activity (Vigna angularis [8])?
Answer: 38.1%

Question: What about the Activity (Vigna angularis [9]) of the same compound?
Answer: 15%

Question: What about the Activity (Phaseolus vulgaris [10]) of the same compound?
Answer: < 3%

Question: And the Activity (Phaseolus vulgaris [11])?
Answer: 3%

Question: And the Activity (Vigna angularis [12])?
Answer: 43%

Question: What about the Activity (Vigna angularis [13]) of the same compound?
Answer: 15.3%

Question: And the Activity (Vigna angularis [14])?
Answer: 36.4%

Question: And the Activity (Vigna angularis [15])?
Answer: 29.5%

Question: And the Crop_yield (Vigna angularis [16])?
Answer: 56%

Question: What about the Activity (Vigna angularis [17]) of the same compound?
Answer: 60%

Question: And the Crop_yield (Phaseolus vulgaris [18])?
Answer: <= 21%

Question: How did the Activity (Vigna angularis [19]) turn out when `CS(=O)(=O)NC(=O)c1cc(Oc2ccc(C(F)(F)F)cc2Cl)ccc1[N+](=O)[O-]` [FOMESAFEN] was run?
Answer: 2.6%

Question: And the Activity (Vigna angularis [20])?
Answer: 1.7%

Question: What about the Activity (Vigna angularis [21]) of the same compound?
Answer: 7.2%

Question: And the Activity (Vigna angularis [22])?
Answer: 6.8%

Question: And the Activity (Vigna angularis [23])?
Answer: 140 g

Question: What about the Activity (Vigna angularis [24]) of the same compound?
Answer: 14.4%

Question: And the Activity (Vigna angularis [25])?
Answer: 4.6%

Question: What about the Crop_yield (Vigna angularis [26]) of the same compound?
Answer: 1.88 tons/ha

Question: And the Activity (Vigna angularis [27])?
Answer: 14.2%

Question: What about the Activity (Vigna angularis [28]) of the same compound?
Answer: 31.3 cm

Question: And the Activity (Vigna angularis [29])?
Answer: 9.8%

Question: And the Activity (Vigna angularis [30])?
Answer: 32.4 cm

Question: And the Activity (Vigna angularis [31])?
Answer: 16%

Question: And the Crop_yield (Vigna angularis [32])?
Answer: 1.81 tons/ha
